Assay results as given in patent US8389792B2, “Compositions and methods for the treatment and prevention of ulcerative colitis and colon cancer and screening methods to identify same” (Cornell University, priority 2007, dated 2013).
“Also recorded” adds a separate entry of the source.

Legend:
Proteus mirabilis [1] = assay: Quantitative fecal culture of Gram-negative aerobes on MacConkey's medium; assay type: in vivo; details: for fecal levels of P. mirabilis after antibiotic: 4-week old TRUC mice, feces cultured 1d before and 1d after antibiotic, limit of detection 4.4 log10 CFU/g
Procedure: (§1) Individual mice were placed in autoclaved plastic cages. Fecal pellets were transferred immediately upon expulsion into capped microfuge tubes. 4-6 pellets were collected per mouse per time point. All Rag2^−/− mice in FIG. 2F were sampled twice over a 3d period for each weekly time point. Pellets were resuspended in sterile PBS and 10-fold serial dilutions were generated, plated on MacConkey's medium, and incubated in ambient air at 37° C. overnight. Biochemical assays with the API-20E panel (bioMerieux) confirmed that colony morphology correlated with Klebsiella pneumoniae, Proteus mirabilis, or E. coli: therefore, these organisms were subsequently identified based on their colony morphotypes.
(§2) The lower limit of detection for these studies was 10^4.4 cfu/gram fecal dry weight. A minimum of 30 colonies or a maximum of 300 colonies was counted at a given dilution and the serial dilution had to appropriately reflect the colony counts for the quantitative counts to pass our quality control standards.
(§3) Mice were treated with the following antibiotics dissolved in their autoclaved drinking water as indicated: ampicillin (1 g/L; Roche), vancomycin (500 mg/L; Sigma), neomycin sulfate (1 g/L; Sigma), metronidazole (1 g/L; Sigma, solubilized with 15 ml of 0.1N acetic acid/L), and gentamicin (2 g/L; Cell Gro); and fluid intake monitored.
(§4) Dextran sulfate sodium (M.W. 40-50,000; USB Cat# 14489) was dissolved in drinking water at a final concentration of 4% (w/v) and provided for 7d.
(§5) anti-TNF-α (clone TN3-19.12), a hamster anti-mouse TNF-α neutralizing IgGl antibody and control Ab (hamster anti-GST IgGl) were purchased from Leinco Technologies. Mice were injected with these reagents (15 mg/kg) on a weekly basis for four weeks (Garrett et al., 2007).
(§6) Peripheral lymph nodes were harvested and cell suspensions were generated as previously described. Fluorescence activated cell sorted C114^+CD62L^h,CD25^+ cells were collected and resuspended in PBS. 75,000 cells were injected per mouse. An equivalent amount of PBS was injected in the control group. 10 mice were injected with T-regulatory cells and nine mice with PBS. All mice were 4 weeks of age at the time of injection (Garrett et al., 2007). This experiment was stopped when the mice were 12 weeks old (as opposed to 14 weeks of age in the TNF-a blockade experiment), because two mice in the control group became quite moribund from their colitis, and euthanasia was indicated as per our animal protocol.

Klebsiella pneumoniae [2] = assay: as above; assay type: in vivo; details: for fecal levels of K. pneumoniae after antibiotic: 4-week old TRUC mice, feces cultured 1d before and 1d after antibiotic, limit of detection 4.4 log10 CFU/g
Procedure: as §1, §2, §3, §4, §5, §6

Proteus mirabilis [3] = assay: TNF-α bacterial co-culture (growth kinetics); assay type: cell-based; details: in vitro mono-culture, 6 h, colony counts at 2 h intervals
Procedure: (§7) TNF-a (final concentration 100u,g/mL culture medium), or PBS alone, was added to cultures of the designated microbes and bacterial concentrations (efu/ml) were followed during a 6 h incubation (37° C. with agitation in ambient air) at 2 h intervals. Bacteria were cultured in Luria Broth and plated on MacConkey's medium.

Klebsiella pneumoniae [4] = assay: TNF-α bacterial co-culture (growth kinetics); assay type: cell-based; details: in vitro mono-culture, 6 h, colony counts at 2 h intervals
Procedure: as §7

[5] = tested on: T-bet−/−×RAG2−/− (TRUC) mice; assay: Histologic colitis scoring of colons from treated TRUC mice; assay type: in vivo, mouse; details: for TRUC colitis (histologic colitis scores, in vivo antibiotic sensitivity): TRUC mice treated four weeks with single antibiotic in drinking water
Excerpt: For studies of the progeny of antibiotic treated animals, progeny were weaned at 21 days and examined six weeks after weaning. These animals had no exposure to antibiotics after weaning.
Colons were removed from euthanized mice and dissected free from the anus to distal to the cecum. Colonic contents were removed and colons were cleaned with phosphate buffer saline or Hanks' balanced salt solution prior to fixation in 4% PFA or 10% neutral buffered formalin (NBF) followed by routine paraffin embedding. After paraffin embedding, […] sections were cut and stained with hematoxylin and eosin or as noted.
Sections were examined and the degree of colitis was blindly scored. Each of four histologic parameters were scored as absent (0), mild (1), moderate (2), or severe (3): mononuclear cell infiltraton, polymorphonuclear cell infiltration, epithelial hyperplasia, and epithelial injury, similar to previous studies (Neurath et al., 2002b). Colons from dextran sodium sulfate treated mice were scored using the following parameters scored on a scale of 0-4: percentage of colon involved by inflammation, percentage of crypt loss, presence of lymphoid follicles, edema, erosions, and density of inflammatory cells. The scores for the individual parameters were summed to give a total severity score. […]
Mice were treated as described previously (Fagarasan, S., et al. (2002). Science 298, 1424-1427; Rakoff-Nahoum, S., et al. (2004). Cell 118, 229-241). Alterations are as noted: in brief, animals were provided ampicillin (1 g/L; Roche), vancomycin (1 gm/L; Henry Schein, Inc. (Hospira, Inc.)), neomycin sulfate (1 g/L; Sigma (Teva Pharmaceuticals)), and metronidazole (1 g/L; Sigma) dissolved in their autoclaved drinking water and their fluid intake was monitored. […]
as §3, with “monitored. […]” for “monitored.”

[6] = 8 week-old WT and Rag2−/− mice, 4% in drinking water one week, samples before and 1d after

In the case of Dextran sulfate sodium, the “culturable P. mirabilis in fecal microbiota after dextran sulfate sodium” value (Proteus mirabilis [1]; [6]) is reported as “did not detect” and the “culturable K. pneumoniae in fecal microbiota after dextran sulfate sodium” value (Klebsiella pneumoniae [2]; [6]) is reported as “did not detect”.
With TNF-a the “growth kinetics of P. mirabilis in vitro” value (Proteus mirabilis [3]) was “did not affect the growth kinetics” and the “growth kinetics of K. pneumoniae in vitro” value (Klebsiella pneumoniae [4]) was “did not affect the growth kinetics”.
gentamicin was tested, and the “TRUC colitis (histologic colitis scores, in vivo antibiotic sensitivity)” value [5] was “able to ameliorate and cure TRUC”, the “fecal levels of P. mirabilis after antibiotic” value (Proteus mirabilis [1]) was “below our limit of detection” and the “fecal levels of K. pneumoniae after antibiotic” value (Klebsiella pneumoniae [2]) was “below our limit of detection”.
`Cc1ncc([N+](=O)[O-])n1CCO` [metronidazole] was tested, and the “TRUC colitis (histologic scores)” value ([5]; six week old TRUC mice, antibiotics 1 g/L each in drinking water for six weeks) was “cured the colitis”, the “fecal levels of P. mirabilis after antibiotic” value (Proteus mirabilis [1]) was “below our limit of detection” and the “fecal levels of K. pneumoniae after antibiotic” value (Klebsiella pneumoniae [2]) was “below our limit of detection”.
For `CN[C@H](CC(C)C)C(=O)N[C@H]1C(=O)N[C@@H](CC(N)=O)C(=O)N[C@H]2C(=O)N[C@H]3C(=O)N[C@H](C(=O)N[C@H](C(=O)O)c4cc(O)cc(O)c4-c4cc3ccc4O)[C@H](O)c3ccc(c(Cl)c3)Oc3cc2cc(c3O[C@@H]2O[C@H](CO)[C@@H](O)[C@H](O)[C@H]2O[C@H]2C[C@](C)(N)[C@H](O)[C@H](C)O2)Oc2ccc(cc2Cl)[C@H]1O` [vancomycin], the “TRUC colitis (histologic colitis scores, in vivo antibiotic sensitivity)” value [5] was “does not; also recorded: neither abolished colitis”.
